Results published in patent US20140094434A1, “AMINO ACID COMPOSITION” (AJINOMOTO CO., INC, priority 2011, published 2014).

Legend:
isolated rat hepatocytes = conditions: Biochem. J., 1991, 273: 57-62; cited from earlier work
[1] = humans; ingestion of proline; Metabolism, 2004, 53(2): 241-246; cited from earlier work
Male C57BL/6J mice = test: Spontaneous motor activity after 90 minutes treadmill running exercise; assay type: in vivo, mouse; conditions: Example 5, FIG. 8; oral dextrin 2 g/kg; measured for 3 hours after 90 minutes running; vs water administration
Protocol: Male C57BL/6J mice were habituated to a running exercise using a treadmill, and subjected to a test. The mice were fasted overnight, and orally administered (1) dextrin 2 g/kg, or (2) dextrin 1 g/kg and L-alanine (Ala) 1 g/kg. From 15 minutes after the administration, a 90 minutes running exercise was loaded at a rate of 26 m/minute using the treadmill. After exercise loading, the mice were transferred into a cage, and the motor activity was measured using a spontaneous motor activity monitor (NS-AS01: Neuroscience Inc.) for 3 hours (dextrin and dextrin+Ala in FIG. 8). As a control, the mice administered the above-mentioned (1) or (2) were administered water instead of (1) or (2), and the spontaneous motor activity was measured in the same manner (dextrin (water administration) and dextrin+Ala (water administration) in FIG. 8). In addition, the spontaneous motor activity of mice in a resting state after fasting overnight and free of the exercise loading was measured for 3 hours in the same manner (in rest in FIG. 8).

Molecule	glycogen synthesis (isolated rat hepatocytes)	increase of blood glucose level after glucose ingestion [1]	spontaneous motor activity after running exercise loading (Male C57BL/6J mice)
N[C@@H](Cc1c[nH]cn1)C(=O)O [histidine]	enhance		
O=C(O)[C@@H]1CCCN1 [proline]	enhance	suppresses	
NC(=O)CC[C@H](N)C(=O)O [glutamine]	enhance		
C[C@H](N)C(=O)O [alanine]	enhance		
NC(=O)C[C@H](N)C(=O)O [asparagine]	enhance		
dextrin			increased
